{"source": "patent US20050009776A1", "about": "“Method of treating atrial fibrillation or atrial flutter” (Aderis Pharmaceuticals, Inc., priority 2003, published 2005)", "key": {"[1]": {"tested_on": "atrioventricular (AV) node", "assay": "Example 2: electrophysiologic effects on atrioventricular nodal function, 30-minute i.v. infusion", "type": "in vivo, human", "procedure": "An open-label, sequential group, dose-escalation study was conducted in electrophysiology laboratories at 11 sites in the United States between October 2000 and August 2001. The study protocol was approved by the institutional review board at each site, and patients provided assent and written informed consent prior to enrollment. Male and female patients (18 to 80 years of age), scheduled to undergo an electrophysiological (EP) study for a known or suspected cardiac arrhythmia or a catheter ablation procedure to an area other than the atrioventricular (AV) node, were enrolled in the study. Study procedures were performed after the completion of the scheduled EP procedure and patients were to be in sinus rhythm at study baseline. Exclusion criteria included: greater than first degree AV block, previous ablation of the AV node or AV node slow pathway, presence of an AV Wenckebach cycle length (AV WBCL)≧500 msec, treatment with atropine during the scheduled EP procedure, systolic blood pressure <90 or >180 mmHg, significant hemodynamic instability, ventricular response rate (VRR)<50 bpm, consumption of caffeine-containing food or beverage within the previous 12 hours, treatment with dipyridamole or diltiazem within the respective 5 half lives or theophylline, aminophylline, treatment with a therapeutic adenosine antagonist within the previous 24 hours, heart transplant or myocardial infarction within 30 days, known hypersensitivity to adenosine, known human immunodeficiency virus infection, or clinically significant hematologic, neurologic, hepatic, or renal function impairment.\nEach patient received 1 of 6 doses of DTI-0009 (0.25, 1.0, 2.5, 4.0, 10.0, or 25.0 μg/kg) diluted in normal saline or normal saline only (control). Study drug was administered as a 30-minute i.v. infusion at a rate of 1 mL/minute. Patients were enrolled in sequential dose groups, beginning with the lowest active dose group and continuing in increasing dose order; the final group received normal saline. The decision to proceed to the next highest dose group was based on the safety response in the previous dose group.\nElectrophysiologic (EP), electrocardiogram (ECG), blood pressure measurements, and blood collection for clinical laboratory measurements were performed at baseline (−10 to 0 minutes), during treatment (between 20 and 30 minutes), and at 10 minutes post-treatment.\nEP measurements included ventricular response rate (VRR) during fixed atrial pacing at 250 and 400 msec (VRR 250 and VRR 400), AV WBCL, the interval from atrium to His bundle (AH interval) during sinus rhythm and rapid fixed atrial pacing at 600 msec, AV node effective refractory period (AVNERP), and atrial effective refractory period (AERP). Ventricular response rate during sinus rhythm was derived from the sinus cycle length.\nECG measurements included PR interval, QRS complex duration, and QT interval. Efficacy was based on changes in EP and ECG parameters from baseline to the treatment period and to post treatment. Safety was based on the incidence of adverse events, blood pressure measurements, and clinical laboratory values.\nDemographic and baseline information were summarized by dose group. Efficacy variables were summarized overall by dose group at baseline, during treatment, and at post-treatment; mean changes from baseline to treatment period and post-treatment were calculated. Treatment effects (the mean difference between change from baseline for DTI-0009 dose and change from baseline for normal saline) and confidence intervals (95% CI) were estimated from an analysis of covariance (ANCOVA) model with treatment as the main factor and baseline score as a covariate. Regression models were constructed to test for dose responses. Efficacy analyses included all patients who received at least 20 minutes of study drug infusion, had analyzable VRR 250 at baseline and during treatment, and were in sinus rhythm at baseline."}, "[2]": {"tested_on": "A1 receptor / A2A receptor", "assay": "Affinity for adenosine A1 receptor relative to A2A receptor", "type": "binding", "from_the_text": "Therefore, DTI-0009 may be capable of terminating episodes of supraventricular arrythymias at doses that have little effect on normal heart rate or blood pressure."}}, "note": "Marks after values point to notes of the source that are not given here."}
{"smiles": "CCNC(=O)[C@H]1O[C@@H](n2cnc3c(NC4CCCC4)ncnc32)[C@H](O)[C@@H]1O", "note": "[DTI-0009, N^6-cyclopentyl-5′-(N-ethyl)carboxamidoadenosine]", "values": [{"measurement": "AERP Treatment Effect", "setting": "[1]; 0.25 μg/kg, during treatment", "value": -9.6, "unit": "ms"}, {"measurement": "AH interval 600 msec Pacing Treatment Effect", "setting": "[1]; 0.25 μg/kg, during treatment", "value": 4.85, "unit": "ms"}, {"measurement": "AH interval Sinus Rhythm Treatment Effect", "setting": "[1]; 0.25 μg/kg, during treatment", "value": -2.8, "unit": "ms"}, {"measurement": "AVNERP Treatment Effect", "setting": "[1]; 0.25 μg/kg, during treatment", "value": -7.03, "unit": "ms"}, {"measurement": "AERP Treatment Effect", "setting": "[1]; 1.0 μg/kg, during treatment", "value": -18.3, "unit": "ms"}, {"measurement": "AH interval 600 msec Pacing Treatment Effect", "setting": "[1]; 1.0 μg/kg, during treatment", "value": 2.6, "unit": "ms"}, {"measurement": "AH interval Sinus Rhythm Treatment Effect", "setting": "[1]; 1.0 μg/kg, during treatment", "value": -0.1, "unit": "ms"}, {"measurement": "AVNERP Treatment Effect", "setting": "[1]; 1.0 μg/kg, during treatment", "value": -1.0, "unit": "ms"}, {"measurement": "PR interval treatment effect", "setting": "[1]; 1.0 μg/kg, during treatment, p=0.008", "value": -42.2, "unit": "ms"}, {"measurement": "PR interval treatment effect", "setting": "[1]; 1.0 μg/kg, post-treatment, p=0.023", "value": -34.5, "unit": "ms"}, {"measurement": "AERP Treatment Effect", "setting": "[1]; 2.5 μg/kg, during treatment", "value": -7.3, "unit": "ms"}, {"measurement": "AH interval 600 msec Pacing Treatment Effect", "setting": "[1]; 2.5 μg/kg, during treatment", "value": 18.0, "unit": "ms"}, {"measurement": "AH interval Sinus Rhythm Treatment Effect", "setting": "[1]; 2.5 μg/kg, during treatment", "value": 7.1, "unit": "ms"}, {"measurement": "AVNERP Treatment Effect", "setting": "[1]; 2.5 μg/kg, during treatment", "value": 16.0, "unit": "ms"}, {"measurement": "AERP Treatment Effect", "setting": "[1]; 4.0 μg/kg, during treatment", "value": 0.6, "unit": "ms"}, {"measurement": "AH interval 600 msec Pacing Treatment Effect", "setting": "[1]; 4.0 μg/kg, during treatment", "value": 18.7, "unit": "ms"}, {"measurement": "AH interval Sinus Rhythm Treatment Effect", "setting": "[1]; 4.0 μg/kg, during treatment", "value": 7.2, "unit": "ms"}, {"measurement": "AVNERP Treatment Effect", "setting": "[1]; 4.0 μg/kg, during treatment", "value": 82.4, "unit": "ms"}, {"measurement": "VRR 250 treatment effect", "setting": "[1]; 4.0 μg/kg, during treatment, CI −51.0, −8.4, p=0.008", "value": "−29.7", "unit": "bpm"}, {"measurement": "AERP Treatment Effect", "setting": "[1]; 10.0 μg/kg, during treatment", "value": "−22.0* msec"}, {"measurement": "AH interval 600 msec Pacing Treatment Effect", "setting": "[1]; 10.0 μg/kg, during treatment", "value": "57.9*** msec"}, {"measurement": "AH interval Sinus Rhythm Treatment Effect", "setting": "[1]; 10.0 μg/kg, during treatment", "value": "21.1** msec"}, {"measurement": "AVNERP Treatment Effect", "setting": "[1]; 10.0 μg/kg, during treatment", "value": "231.5*** msec"}, {"measurement": "VRR 250 treatment effect", "setting": "[1]; 10.0 μg/kg, during treatment, CI −68.3, −26.4, p=0.001", "value": "−47.4", "unit": "bpm"}, {"measurement": "PR interval treatment effect", "setting": "[1]; 10.0 μg/kg, post-treatment, p=0.007", "value": 42.9, "unit": "ms"}, {"measurement": "AERP Treatment Effect", "setting": "[1]; 25.0 μg/kg, during treatment", "value": 4.0, "unit": "ms"}, {"measurement": "AH interval 600 msec Pacing Treatment Effect", "setting": "[1]; 25.0 μg/kg, during treatment", "value": "64.8** msec"}, {"measurement": "AH interval Sinus Rhythm Treatment Effect", "setting": "[1]; 25.0 μg/kg, during treatment", "value": 14.2, "unit": "ms"}, {"measurement": "AVNERP Treatment Effect", "setting": "[1]; 25.0 μg/kg, during treatment", "value": "198.3* msec"}, {"measurement": "VRR 250 treatment effect", "setting": "[1]; 25.0 μg/kg, during treatment, CI −85.7, −18.5, p=0.004", "value": "−52.1", "unit": "bpm"}, {"measurement": "VRR 250 treatment effect at lower doses", "setting": "[1]; 0.25, 1.0, and 2.5 μg/kg", "value": "no statistically significant treatment effect"}, {"measurement": "QRS duration or QT interval", "setting": "[1]; during the study", "value": "no statistically significant changes"}, {"measurement": "AV WBCL treatment effect", "setting": "[1]; during treatment, 10.0 and 25.0 μg/kg (p=0.001, p=0.035)", "value": "statistically significant treatment effects (increases from baseline)"}, {"measurement": "AV WBCL treatment effect", "setting": "[1]; post-treatment, 4.0, 10.0 and 25.0 μg/kg (p=0.013, p=0.001, p=0.001)", "value": "statistically significant treatment effects (increases from baseline)"}, {"measurement": "affinity for the A1 receptor higher than for the A2A receptor", "setting": "[2]", "value": 340, "unit": "fold"}]}
